# From publication PMC9409168, “Kinetic Characterization of Cerium and Gallium Ions as Inhibitors of Cysteine Cathepsins L, K, and S” (International Journal of Molecular Sciences, 2022)
# Read-outs that look alike come from different tables or passages of the source.
# Key:
# [1] = target: T1, cathepsin L (Homo sapiens, UniProt P07711); experiment: Kinetics of cathepsin L inhibition by metal ions, fluorogenic substrate Z-Leu-Arg-AMC; type: biochemical; details: for Mechanism: specific velocity plot
# T1 construct: made in house; host or cells: E. coli
# [2] = target: T2, cathepsin K (Homo sapiens, UniProt P43235); experiment: Kinetics of cathepsin K inhibition by metal ions, fluorogenic substrate Z-Phe-Arg-AMC; type: biochemical; details: for Mechanism: specific velocity plot / titration
# T2 construct: made in house; host or cells: E. coli
# T2 sequence (P43235 115-329): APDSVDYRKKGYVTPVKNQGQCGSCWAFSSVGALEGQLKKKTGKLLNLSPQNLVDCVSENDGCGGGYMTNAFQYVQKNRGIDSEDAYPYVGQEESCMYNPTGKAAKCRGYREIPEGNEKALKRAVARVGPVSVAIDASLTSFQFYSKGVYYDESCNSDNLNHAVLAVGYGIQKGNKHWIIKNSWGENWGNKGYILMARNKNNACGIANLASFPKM
# [3] = target: T3, cathepsin S (Homo sapiens, UniProt P25774); experiment: Kinetics of cathepsin S inhibition by metal ions, fluorogenic substrate Z-Val-Val-Arg-AMC; type: biochemical; details: for Mechanism: specific velocity plot / titration
# T3 construct: made in house; host or cells: E. coli
# [4] = target: T1, cathepsin L; experiment: Degradation of insoluble bovine neck ligament elastin by cathepsin L; type: biochemical; details: metal ions 0.5 mM
# Method: (§1) Degradation of insoluble elastin was performed and analyzed according to the protocol in ref. [51]. Briefly, reactions were performed using 200 µL samples, each containing 1 mg of insoluble bovine neck ligament elastin. The enzymes were added to a final concentration of 0.2 µM and the metal ions to a final concentration of 0.5 mM. Samples were incubated at 37 °C for 120 min on an Eppendorf Thermomixer with shaking at 1200 rpm, and the reactions were then stopped by the addition of trichloroacetic acid to a final concentration of 5% (w/V). Samples were cleared by centrifugation and 100 µL of the supernatant was mixed with 1400 µL of 0.2 M sodium borate buffer and 500 µL of a 0.15 mg/mL solution of fluorescamine in acetone. The fluorescence of the samples was measured at an excitation wavelength of λex = 390 nm and emission wavelength of λem = 480 nm. Blank samples without added enzyme were run in parallel and their fluorescence values were subtracted from the samples. Experiments were performed in three replicates of each sample and each experiment was repeated multiple times to assure reproducibility of the results.
# [5] = system: cell growth and metabolism; parameters: method as in PMID 7929991; details: cited from earlier work
# [6] = target: T2, cathepsin K; experiment: Degradation of insoluble bovine neck ligament elastin by cathepsin K; type: biochemical; details: metal ions 0.5 mM
# Method: as §1
# [7] = target: T3, cathepsin S; experiment: Degradation of insoluble bovine neck ligament elastin by cathepsin S; type: biochemical; details: metal ions 0.5 mM
# Method: as §1
# [8] = target: cathepsins L, K, and S; experiment: Kinetics of inhibition, summary over all tested peptidases; type: biochemical, human; details: range over all peptidases tested (cathepsins L, K, S); read-out: equilibrium dissociation constants (inhibition constants)
# [9] = Z-Leu-Arg-AMC, 25 °C, 0.1 M sodium acetate buffer pH 5.5, read-out: KX
# [10] = Z-Phe-Arg-AMC, 25 °C, 0.1 M sodium acetate buffer pH 5.5, read-out: KX
# [11] = effect on catalytic rate, general modifier mechanism
# [12] = effect on substrate affinity, general modifier mechanism
# [13] = Z-Val-Val-Arg-AMC, 25 °C, 0.1 M sodium acetate buffer pH 5.5, read-out: KX
# T1 sequence (P07711 114-333): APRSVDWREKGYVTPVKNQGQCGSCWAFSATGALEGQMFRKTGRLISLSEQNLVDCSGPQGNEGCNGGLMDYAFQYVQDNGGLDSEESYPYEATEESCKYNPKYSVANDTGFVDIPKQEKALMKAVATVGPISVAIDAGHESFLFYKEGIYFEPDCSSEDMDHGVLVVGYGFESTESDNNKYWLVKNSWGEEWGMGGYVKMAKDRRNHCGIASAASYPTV
# T3 sequence (P25774 115-331): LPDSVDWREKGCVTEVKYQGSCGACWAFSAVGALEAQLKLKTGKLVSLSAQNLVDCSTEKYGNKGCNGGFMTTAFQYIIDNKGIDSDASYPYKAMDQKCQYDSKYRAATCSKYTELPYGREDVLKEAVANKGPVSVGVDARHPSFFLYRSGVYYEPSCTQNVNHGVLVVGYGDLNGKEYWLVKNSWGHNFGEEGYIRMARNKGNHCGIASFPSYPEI
Structure (SMILES),"Ki [1, 9]",Ki ([1]; read-out: KX),Mechanism [1],"Ki [2, 10]","β [2, 11]","α [2, 12]",Ki ([2]; read-out: KX),Mechanism [2],residual enzyme activity at saturation ([2]; synthetic substrate),"Ki [3, 13]","β [3, 11]","α [3, 12]",Ki ([3]; read-out: KX),Mechanism [3],residual enzyme activity at saturation ([3]; synthetic substrate),"inhibition of elastin degradation, comparison in words [4]",toxic effects on cell growth and metabolism [5],"inhibition of elastin degradation, comparison in words [6]","inhibition of elastin degradation, comparison in words [7]",Ki [8]
"O=[N+]([O-])[O-].O=[N+]([O-])[O-].O=[N+]([O-])[O-].[Ga+3] [Ga^3+, Ga(NO3)3]",0.6 ± 0.04 µM,0.6 µM,Linear specific,4.1 ± 0.8 µM,2.4 ± 1.4,11.5 ± 1.0,~4 µM,Hyperbolic mixed,about 20%,3.7 ± 0.6 µM,3.3 ± 0.5,11.3 ± 1.0,~4 µM,Hyperbolic mixed,about 20%,most potent inhibitor,no significant toxic effects,–,–,–
"[Pb+2] [Pb^2+, reference compound]",26 ± 12 µM,–,Linear specific,135 ± 13 µM,–,–,–,Linear specific,–,50 ± 5 µM,–,–,–,Linear specific,–,–,–,–,–,–
[Zn+2] [Zn^2+],7.5 ± 0.9 µM,–,Linear specific,7.3 ± 0.3 µM,–,–,–,Linear specific,–,2.9 ± 0.5 µM,–,–,–,Linear specific,–,–,–,strongest inhibitor,strongest inhibitor,~1000 nM
